Here are results for 23 molecules from US20230117324A1, “OXAZINE MONOACYLGLYCEROL LIPASE (MAGL) INHIBITORS” (Hoffmann-La Roche Inc., priority 2018, published 2023).

Assay [1] deals with T1, MAGL (recombinant wild-type) (Homo sapiens, UniProt Q99685).
T1 sequence (Q99685 1-303): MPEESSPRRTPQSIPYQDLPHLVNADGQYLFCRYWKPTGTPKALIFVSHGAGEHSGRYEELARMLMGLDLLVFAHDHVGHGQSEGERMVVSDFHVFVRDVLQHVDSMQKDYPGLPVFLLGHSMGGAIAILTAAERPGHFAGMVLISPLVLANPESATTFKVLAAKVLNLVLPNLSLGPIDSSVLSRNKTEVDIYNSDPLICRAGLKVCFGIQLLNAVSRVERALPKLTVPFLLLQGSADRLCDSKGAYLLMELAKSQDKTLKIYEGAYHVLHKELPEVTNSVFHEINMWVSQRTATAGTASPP
The experiment in a line: MAGL inhibition, 4-NPA assay (hydrolysis of 4-nitrophenylacetate, absorbance at 405 nm). It is filed as biochemical. The following applies: 4-NPA assay (footnote [a]: values not marked [b]). The protocol: Compounds were profiled for MAGL inhibitory activity by measuring the enzymatic activity of MAGL by following the hydrolysis of 4-nitrophenylacetate resulting in 4-nitrophenol, which absorbs at 405-412 nm (G. G. Muccioli, G. Labar, D. M. Lambert, Chem. Bio. Chem. 2008, 9, 2704-2710). This assay is hereinafter abbreviated “4-NPA assay”.
The assay was carried out in 384 well assay plates (black with clear bottom, non-binding surface treated, Corning Ref. 3655) in a total volume of 40 μL. Compound dilutions were made in 100% DMSO (VWR Chemicals 23500.297) in a polypropylene plate in 3-fold dilution steps to give a final concentration range in the assay from 25 μM to 1.7 nM. 1 μL compound dilutions (100% DMSO) were added to 19 μL MAGL (recombinant wild-type) in assay buffer (50 mM TRIS (GIBCO, 15567-027), 1 mM EDTA (Fluka, 03690-100 mL)). The plate was shaked for 1 min at 2000 rpm (Variomag Teleshake) and then incubated for 15 min at RT. To start the reaction, 20 μL 4-Nitrophenlyacetate (Sigma N-8130) in assay buffer with 6% EtOH was added. The final concentrations in the assay were 1 nM MAGL and 300 μM 4-Nitrophenylacetate. After shaking (1 min, 2000 rpm) and 5 min incubation at RT, the absorbance at 405 nm was measured for a first time (Molecular Devices, SpectraMax Paradigm). A second measurement was then done after incubation for 80 min at RT. From the two measurements, the slope was calculated by subtracting the first from the second measurement.

Assay [2] concerns the target T2, MAGL (Homo sapiens, UniProt Q99685).
T2 sequence (Q99685 1-303): T1 sequence (Q99685 1-303)
As to the kind of experiment: MAGL inhibition, 2-AG assay (hydrolysis of 2-arachidonoylglycerol, arachidonic acid by mass spectrometry). The assay is classed as biochemical. The following applies: 2-AG assay (footnote [b]). A digest of the protocol:
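Human MAGL […] was preincubated 15 min at RT with compound ([…], 3-fold steps) in 50 mM Tris, 1 mM EDTA, 0.01% Tween. 2-AG (8 μM) was then added for 30 min at RT. Arachidonic acid was quantified by RapidFire SPE–triple quadrupole MS in negative ESI as its ratio to a d8-arachidonic acid standard.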

SMILES strings stand for the structures.

The IC50 is the midpoint of a concentration-inhibition curve.

Regarding `O=C1CO[C@H]2CCN(C(=O)N3CCC(C(c4ccccc4)c4ccccc4)CC3)C[C@H]2N1` (racemic) [Example 1, rac-(4aR,8aS)-6-(4-Benzhydrylpiperidine-1-carbonyl)-4,4a,5,7,8,8a-hexahydropyrido[4,3-b][1,4]oxazin-3-one], in assay [1], the IC50 turned out to be 3 nM.
For `O=C1CO[C@H]2CCN(C(=O)N3CCC(c4cn(CC5CC5)c5ccc(Cl)cc45)CC3)C[C@H]2N1` (racemic) [Example 2, rac-(4aR,8aS)-6-(4-(5-Chloro-1-(cyclopropylmethyl)-1H-indol-3-yl)piperidine-1-carbonyl)hexahydro-2H-pyrido[4,3-b][1,4]oxazin-3(4H)-one], the IC50 in assay [1] was 2 nM.
As to `Cn1cc(C2CCN(C(=O)N3CC[C@@H]4OCC(=O)N[C@@H]4C3)CC2)c2cc(Cl)ccc21` (racemic) [Example 3, rac-(4aR,8aS)-6-(4-(5-Chloro-1-methyl-1H-indol-3-yl)piperidine-1-carbonyl)hexahydro-2H-pyrido[4,3-b][1,4]oxazin-3(4H)-one], the IC50 in assay [1] was determined as 3 nM.
Still for that read-out and setting: under `O=C1CO[C@H]2CCN(C(=O)N3CCC(C4c5ccccc5-c5ccccc54)CC3)C[C@H]2N1` (racemic) [Example 4, rac-(4aR,8aS)-6-(4-(9H-Fluoren-9-yl)piperidine-1-carbonyl)hexahydro-2H-pyrido[4,3-b][1,4]oxazin-3(4H)-one] stands 5 nM.
Still for that read-out and setting: under `COCCC(c1ccc(F)cc1)C1CCN(C(=O)N2CC[C@@H]3OCC(=O)N[C@@H]3C2)CC1` (mixture of isomers) [Example 6, rac-(4aR,8aS)-6-(4-(1-(4-Fluorophenyl)-3-methoxypropyl)piperidine-1-carbonyl)hexahydro-2H-pyrido[4,3-b][1,4]oxazin-3(4H)-one] stands 15 nM; under `O=C1CO[C@H]2CCN(C(=O)N3CCC(c4c[nH]c5cc(F)ccc45)CC3)C[C@H]2N1` (racemic) [Example 7, rac-(4aR,8aS)-6-[4-(6-Fluoro-1H-indol-3-yl)piperidine-1-carbonyl]-4,4a,5,7,8,8a-hexahydropyrido[4,3-b][1,4]oxazin-3-one], 43 nM; under `COC(c1ccc(F)cc1)C1CCN(C(=O)N2CC[C@@H]3OCC(=O)N[C@@H]3C2)CC1` (mixture of isomers) [Example 8, rac-(4aR,8aS)-6-(4-((4-Fluorophenyl)(methoxy)methyl)piperidine-1-carbonyl)hexahydro-2H-pyrido[4,3-b][1,4]oxazin-3(4H)-one], 91 nM.
Still for that read-out and setting: under `O=C1CO[C@H]2CCN(C(=O)N3CCC(c4noc5ccc(F)cc45)CC3)C[C@H]2N1` (racemic) [Example 9, rac-(4aR,8aS)-6-(4-(5-Fluorobenzo[d]isoxazol-3-yl)piperidine-1-carbonyl)hexahydro-2H-pyrido[4,3-b][1,4]oxazin-3(4H)-one] stands 644 nM; under `O=C1CO[C@H]2CCN(C(=O)N3CCN([C@H](c4ccccc4)c4ccc(Cl)cc4)CC3)C[C@H]2N1` (racemic) [Example 10, rac-(4aR,8aS)-6-(4-(rac-(4-Chlorophenyl)(phenyl)methyl)piperazine-1-carbonyl)hexahydro-2H-pyrido[4,3-b][1,4]oxazin-3(4H)-one], 5 nM; under `O=C1CO[C@H]2CCN(C(=O)N3CCN(C(c4ccc(F)cc4)c4ccc(F)cc4)CC3)C[C@H]2N1` (racemic) [Example 12, rac-(4aR,8aS)-6-[4-[bis(4-Fluorophenyl)methyl]piperazine-1-carbonyl]-4,4a,5,7,8,8a-hexahydropyrido[4,3-b][1,4]oxazin-3-one], 12 nM.
As to `O=C1CO[C@H]2CCN(C(=O)N3CCN(c4c[nH]c5ccc(Cl)cc45)CC3)C[C@H]2N1` (racemic) [Example 14, rac-(4aR,8aS)-6-(4-(5-Chloro-1H-indol-3-yl)piperazine-1-carbonyl)hexahydro-2H-pyrido[4,3-b][1,4]oxazin-3(4H)-one], in assay [1], the IC50 turned out to be 133 nM.
`CC(C)(C)Oc1ccc(C2CN(C(=O)N3CC[C@@H]4OCC(=O)N[C@@H]4C3)C2)cc1` [Example 262, (4aR,8aS)-6-[3-(4-tert-Butoxyphenyl)azetidine-1-carbonyl]-4,4a,5,7,8,8a-hexahydropyrido[4,3-b][1,4]oxazin-3-one] yielded an IC50 in assay [2] of 1 nM.
On the same count and under the same terms, under `O=C1CO[C@H]2CCN(C(=O)N3CCC(N4CCc5cc(Cl)ccc54)CC3)C[C@H]2N1` [Example 263, (4aR,8aS)-6-[4-(5-Chloroindolin-1-yl)piperidine-1-carbonyl]-4,4a,5,7,8,8a-hexahydropyrido[4,3-b][1,4]oxazin-3-one] stands 16 nM; under `O=C1CO[C@H]2CCN(C(=O)N3CCC(N4Cc5cccc(Cl)c5C4)CC3)C[C@H]2N1` [Example 264, (4aR,8aS)-6-[4-(4-Chloroisoindolin-2-yl)piperidine-1-carbonyl]-4,4a,5,7,8,8a-hexahydropyrido[4,3-b][1,4]oxazin-3-one], 146 nM.
In the case of `O=C1CO[C@H]2CCN(C(=O)N3CCC(N4CC5(CC5)c5cc(Cl)ccc54)CC3)C[C@H]2N1` [Example 265, (4aR,8aS)-6-[4-(5′-Chlorospiro[cyclopropane-1,3′-indoline]-1′-yl)piperidine-1-carbonyl]-4,4a,5,7,8,8a-hexahydropyrido[4,3-b][1,4]oxazin-3-one], 58 nM corresponded to half-maximal inhibition in assay [2] (IC50).
Still for that read-out and setting: under `O=C1CO[C@H]2CCN(C(=O)N3CC(N4Cc5cccc(Cl)c5C4)C3)C[C@H]2N1` [Example 266, (4aR,8aS)-6-[3-(4-Chloroisoindolin-2-yl)azetidine-1-carbonyl]-4,4a,5,7,8,8a-hexahydropyrido[4,3-b][1,4]oxazin-3-one] stands 457 nM.
Same read-out and setting: the value for `O=C1CO[C@H]2CCN(C(=O)N3CCC(c4cn(CCO)c5ccc(Cl)cc45)CC3)C[C@@H]2N1` [Example 269, (4aS,8aS)-6-[4-[5-Chloro-1-(2-hydroxyethyl)indol-3-yl]piperidine-1-carbonyl]-4,4a,5,7,8,8a-hexahydropyrido[4,3-b][1,4]oxazin-3-one] was 530 nM; that for `O=C1CO[C@H]2CCN(C(=O)N3CC(c4ccc(N5CCC(C(F)(F)F)C5)cn4)C3)C[C@H]2N1` (stereo partly drawn) [Example 270, (4aR,8aS)-6-(3-(5-(3-(Trifluoromethyl)pyrrolidin-1-yl)pyridin-2-yl)azetidine-1-carbonyl)hexahydro-2H-pyrido[4,3-b][1,4]oxazin-3(4H)-one] was 26 nM.
Turning to `O=C1CO[C@H]2CCN(C(=O)N3CC(c4ccc(N5CCC(C(F)(F)F)C5)nc4)C3)C[C@H]2N1` (stereo partly drawn) [Example 273, (4aR,8aS)-6-[3-[6-[3-(Trifluoromethyl)pyrrolidin-1-yl]-3-pyridyl]azetidine-1-carbonyl]-4,4a,5,7,8,8a-hexahydropyrido[4,3-b][1,4]oxazin-3-one], 2 nM corresponded to half-maximal inhibition in assay [2] (IC50).
As for `O=C1CO[C@H]2CCN(C(=O)N3CC(c4ccc(N5CCC(C(F)(F)F)C5)nc4)C3)C[C@H]2N1` (stereo partly drawn) [Example 275, (4aR,8aS)-6-[3-[6-[3S-or 3R-(trifluoromethyl)pyrrolidin-1-yl]-3-pyridyl]azetidine-1-carbonyl]-4,4a,5,7,8,8a-hexahydropyrido[4,3-b][1,4]oxazin-3-one], the IC50 in assay [2] was determined as 4 nM.
`O=C1CO[C@H]2CCN(C(=O)N3CC(c4ccc(C5CCCOC5)cc4)C3)C[C@H]2N1` (stereo partly drawn) [Example 276, (4aR,8aS)-6-[3-(4-Tetrahydropyran-3-ylphenyl)azetidine-1-carbonyl]-4,4a,5,7,8,8a-hexahydropyrido[4,3-b][1,4]oxazin-3-one] came in with an IC50 in assay [2] of 4 nM.
The same measure, in the same setting: under `COc1cc(CC(F)(F)F)ccc1C1CN(C(=O)N2CC[C@@H]3OCC(=O)N[C@@H]3C2)C1` [Example 277, (4aR,8aS)-6-[3-[2-Methoxy-4-(2,2,2-trifluoroethyl)phenyl]azetidine-1-carbonyl]-4,4a,5,7,8,8a-hexahydropyrido[4,3-b][1,4]oxazin-3-one] stands 2 nM; under `CC(C)(C)COc1ccc(C2CN(C(=O)N3CC[C@@H]4OCC(=O)N[C@@H]4C3)C2)cc1` [Example 278, (4aR,8aS)-6-(3-(4-(Neopentyloxy)phenyl)azetidine-1-carbonyl)hexahydro-2H-pyrido[4,3-b][1,4]oxazin-3(4H)-one], 0.1 nM.
